The values that follow come from BindingDB's records for PubMed 11916140 (Universit&Agrave, 2001).

Broadly, the Ki is a dissociation constant, usually derived from enzyme kinetics or from competition with a known ligand. A lower Ki goes with tighter binding.

What all share (assay): Inhibition Assay
What all share (conditions): pH 7.4; 25 °C

The target of assay [1] is T1, Carbonic anhydrase 4 (Bos taurus, UniProt Q95323).
T1 sequence (Q95323 whole entry): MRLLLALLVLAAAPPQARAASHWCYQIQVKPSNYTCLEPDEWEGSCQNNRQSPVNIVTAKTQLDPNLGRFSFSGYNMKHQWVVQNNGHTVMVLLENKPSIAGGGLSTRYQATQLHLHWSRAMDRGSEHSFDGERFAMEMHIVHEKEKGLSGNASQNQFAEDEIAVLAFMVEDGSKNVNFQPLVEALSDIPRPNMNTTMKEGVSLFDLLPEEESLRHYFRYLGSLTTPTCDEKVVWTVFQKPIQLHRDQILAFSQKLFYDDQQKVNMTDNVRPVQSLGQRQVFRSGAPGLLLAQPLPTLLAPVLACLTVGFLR
The source says:
(§1) Inhibition assay using human Carbonic anhydrase I and II and bovine carbonic anhydrase IV.

Assay [2] addresses Carbonic anhydrase 2 (Homo sapiens, UniProt P00918).
Source text: as §1

Assay [3] addresses Carbonic anhydrase 1 (Homo sapiens, UniProt P00915).
Source text: as §1

Carbonic anhydrase 1, sequence (P00915 whole entry): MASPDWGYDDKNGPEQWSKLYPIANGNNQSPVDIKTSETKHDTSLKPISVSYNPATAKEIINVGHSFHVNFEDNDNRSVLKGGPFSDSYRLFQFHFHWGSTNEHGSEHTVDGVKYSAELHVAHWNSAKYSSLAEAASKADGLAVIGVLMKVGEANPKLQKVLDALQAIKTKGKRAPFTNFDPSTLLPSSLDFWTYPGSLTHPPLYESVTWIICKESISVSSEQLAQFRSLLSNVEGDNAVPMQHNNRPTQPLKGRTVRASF

Consider `NS(=O)(=O)OCc1csc(-c2ccc(S(=O)(=O)c3ccc(Br)cc3)cc2)n1` [2-[4-(4-Bromophenylsulfonyl)-Phenyl}-thiazole-4-yl-methyl-sulfamate, 3c], for which the Ki in assay [1] is 54 nM; in assay [2], 21 nM; in assay [3] it was above 1000 nM.
The like results for `NS(=O)(=O)NCc1csc(-c2ccc(S(=O)(=O)c3ccc(Cl)cc3)cc2)n1` [2-[4-(4-Chlorophenylsulfonyl)-Phenyl}-thiazole-4-yl-methyl-sulfamide, 2b] were, in that order, 65 nM, 24 nM and above 1000 nM.
The corresponding values for `NS(=O)(=O)NCc1csc(-c2ccc(S(=O)(=O)c3ccccc3)cc2)n1` [2-[4-(Phenylsulfonyl)-Phenyl}-thiazole-4-yl-methyl-sulfamide, 2a] are 83 nM, 28 nM and above 1000 nM.
With `NS(=O)(=O)OCc1csc(-c2ccc(S(=O)(=O)c3ccc(Cl)cc3)cc2)n1` [2-[4-(4-Chlorophenylsulfonyl)-Phenyl}-thiazole-4-yl-methyl-sulfamate, 3b], the values for the inhibitory constant (Ki) in assay [1], in assay [2] and in assay [3] were 66 nM, 30 nM and above 1000 nM, respectively.
Regarding `NS(=O)(=O)NCc1csc(-c2ccc(S(=O)(=O)c3ccc(Br)cc3)cc2)n1` [2-[4-(4-Bromophenylsulfonyl)-Phenyl}-thiazole-4-yl-methyl-sulfamide, 2c], the results for the inhibitory constant (Ki) in assay [1], in assay [2] and in assay [3] were 50 nM, 16 nM and above 1000 nM, respectively.
The like results for `NS(=O)(=O)OCc1csc(-c2ccc(S(=O)(=O)c3ccccc3)cc2)n1` [2-[4-(Phenylsulfonyl)-Phenyl}-thiazole-4-yl-methyl-sulfamate, 3a] were, in that order, 87 nM, 33 nM and above 1000 nM.
